Results from ChEMBL document CHEMBL1201862, “PubChem BioAssay data set” (2004).
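Briefly, cells in 96-well plates were exposed to five compound concentrations for 48 h, and endpoints were estimated by linear interpolation. GI50 is the concentration that inhibits growth by half.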 Active and inactive are the calls of the source. Cut-off read from the data, not from the text of the source: active = GI50 up to about 1.1 µM and inactive = higher.

Columns and labels:
Experiment in all cases: NCI anticancer screen, dose series, 48 h
UO-31 = test system: UO-31
BT-549 = test system: BT-549
OVCAR-3 = test system: OVCAR-3
HL-60 = test system: HL-60
NCI-H226 = test system: NCI-H226
SF-539 = test system: SF-539
MOLT-4 = test system: MOLT-4
LOX IMVI = test system: LOX IMVI
HOP-92 = test system: HOP-92
SK-OV-3 = test system: SK-OV-3
KM12 = test system: KM12
A549 = test system: A549
SR = test system: SR
U-251 = test system: U-251
CAKI-1 = test system: CAKI-1
TK-10 = test system: TK-10
SK-MEL-5 = test system: SK-MEL-5
K562 = test system: K562
MDA-MB-435 = test system: MDA-MB-435
RPMI-8226 = test system: RPMI-8226

Row | SMILES | GI50 (UO-31) | GI50 (BT-549) | GI50 (OVCAR-3) | GI50 (HL-60) | GI50 (NCI-H226) | GI50 (SF-539) | GI50 (MOLT-4) | GI50 (LOX IMVI) | GI50 (HOP-92) | GI50 (SK-OV-3) | GI50 (KM12) | GI50 (A549) | GI50 (SR) | GI50 (U-251) | GI50 (CAKI-1) | GI50 (TK-10) | GI50 (SK-MEL-5) | GI50 (K562) | GI50 (MDA-MB-435) | GI50 (RPMI-8226)
1 | O=C(CCc1ccc(O)cc1)NCCc1ccc(O)cc1 | > 100 µM (inactive) | 62.4 µM (inactive) | > 100 µM (inactive) | > 100 µM (inactive) | > 100 µM (inactive) | > 100 µM (inactive) | > 100 µM (inactive) | > 100 µM (inactive) | > 100 µM (inactive) | > 100 µM (inactive) | > 100 µM (inactive) | > 100 µM (inactive) | > 100 µM (inactive) | > 100 µM (inactive) | > 100 µM (inactive) | > 100 µM (inactive) | > 100 µM (inactive) | > 100 µM (inactive) | > 100 µM (inactive) | –
2 | Oc1ccc(C(c2ccc(O)cc2)c2ccc(O)cc2)cc1 | 18.4 µM (inactive) | 20.5 µM (inactive) | – | 18.9 µM (inactive) | 10.4 µM (inactive) | 20.8 µM (inactive) | 20.6 µM (inactive) | 19.3 µM (inactive) | 18.1 µM (inactive) | 14 µM (inactive) | 16.7 µM (inactive) | 35.9 µM (inactive) | 37.1 µM (inactive) | 23.2 µM (inactive) | 16.1 µM (inactive) | 22.8 µM (inactive) | 13.8 µM (inactive) | – | 19.7 µM (inactive) | 27.2 µM (inactive)
3 | N/C(=N/c1ccc(O)cc1)S(=O)(=O)O | > 100 µM (inactive) | > 100 µM (inactive) | > 100 µM (inactive) | > 100 µM (inactive) | > 100 µM (inactive) | > 100 µM (inactive) | > 100 µM (inactive) | > 100 µM (inactive) | > 100 µM (inactive) | > 100 µM (inactive) | > 100 µM (inactive) | > 100 µM (inactive) | > 100 µM (inactive) | > 100 µM (inactive) | > 100 µM (inactive) | > 100 µM (inactive) | > 100 µM (inactive) | > 100 µM (inactive) | > 100 µM (inactive) | –
4 | CCCCCc1nnc(NS(=O)(=O)c2ccc(NC(=O)OCC(C)C)cc2)s1 | 33.4 µM (inactive) | 32.1 µM (inactive) | 30.3 µM (inactive) | 31.2 µM (inactive) | – | 26.8 µM (inactive) | 20.1 µM (inactive) | 37.2 µM (inactive) | 24.1 µM (inactive) | 31.5 µM (inactive) | 36.1 µM (inactive) | 34.2 µM (inactive) | 16.4 µM (inactive) | 42.9 µM (inactive) | 36.2 µM (inactive) | 36.9 µM (inactive) | 27.1 µM (inactive) | 25.2 µM (inactive) | 33.7 µM (inactive) | 19.3 µM (inactive)
5 | OCC1OC(O)C(/N=C\c2ccc3c(c2)OCO3)C(O)C1O (centres undefined) | > 100 µM (inactive) | > 100 µM (inactive) | > 100 µM (inactive) | > 100 µM (inactive) | > 100 µM (inactive) | > 100 µM (inactive) | > 100 µM (inactive) | > 100 µM (inactive) | > 100 µM (inactive) | > 100 µM (inactive) | > 100 µM (inactive) | > 100 µM (inactive) | > 100 µM (inactive) | > 100 µM (inactive) | > 100 µM (inactive) | > 100 µM (inactive) | > 100 µM (inactive) | – | > 100 µM (inactive) | > 100 µM (inactive)
6 | COC1CC2C=CC3C4OC2(/C(C)=C/C(C)C(C(C)O)OC1=O)C3C(O)C(C)C4OC(=O)c1ccc[nH]1 (centres undefined) | > 100 µM (inactive) | 81.5 µM (inactive) | > 100 µM (inactive) | 16.6 µM (inactive) | – | 59.6 µM (inactive) | 23.4 µM (inactive) | 64 µM (inactive) | > 100 µM (inactive) | – | 21 µM (inactive) | > 100 µM (inactive) | 26.5 µM (inactive) | 96.2 µM (inactive) | > 100 µM (inactive) | > 100 µM (inactive) | 38.2 µM (inactive) | – | 58.1 µM (inactive) | 35.6 µM (inactive)
7 | O=C1CCCCC1=C(I)I | 16.7 µM (inactive) | 13 µM (inactive) | 16.3 µM (inactive) | 4.49 µM (inactive) | 19.7 µM (inactive) | 19.5 µM (inactive) | 17.9 µM (inactive) | – | 15.4 µM (inactive) | 22.6 µM (inactive) | 15.5 µM (inactive) | 37.8 µM (inactive) | 16.1 µM (inactive) | 16.3 µM (inactive) | – | – | 17.9 µM (inactive) | 16 µM (inactive) | 19.1 µM (inactive) | 15.1 µM (inactive)
8 | CCCCCCCCCCCCP(=O)(O)OCC(N)C(=O)O (centres undefined) | 12.3 µM (inactive) | 29.6 µM (inactive) | 18.7 µM (inactive) | 15.8 µM (inactive) | 40.7 µM (inactive) | 20.7 µM (inactive) | 16.9 µM (inactive) | 24.9 µM (inactive) | 25.4 µM (inactive) | 21.6 µM (inactive) | – | 24.8 µM (inactive) | 24.2 µM (inactive) | 11.4 µM (inactive) | 49.9 µM (inactive) | 33.3 µM (inactive) | 32.5 µM (inactive) | 39.4 µM (inactive) | 18.3 µM (inactive) | 30.9 µM (inactive)
9 | CCOC(=O)c1cc(Br)c(-c2cc(C)co2)[nH]1 | 66.7 µM (inactive) | > 100 µM (inactive) | > 100 µM (inactive) | 55.7 µM (inactive) | > 100 µM (inactive) | > 100 µM (inactive) | 54.6 µM (inactive) | > 100 µM (inactive) | > 100 µM (inactive) | > 100 µM (inactive) | 73.3 µM (inactive) | > 100 µM (inactive) | 31.8 µM (inactive) | > 100 µM (inactive) | > 100 µM (inactive) | – | 81.3 µM (inactive) | 69.8 µM (inactive) | 32.9 µM (inactive) | > 100 µM (inactive)
10 | COC(=O)[C@@H]1[C@H](O)CC[C@H]2[C@@]1(C)CC[C@@H](C)[C@]2(COC(C)=O)CC(=O)c1ccoc1 | > 50 µM (inactive) | > 50 µM (inactive) | > 50 µM (inactive) | 17 µM (inactive) | > 50 µM (inactive) | > 50 µM (inactive) | 28.6 µM (inactive) | > 50 µM (inactive) | > 50 µM (inactive) | > 50 µM (inactive) | > 50 µM (inactive) | > 50 µM (inactive) | > 50 µM (inactive) | > 50 µM (inactive) | > 50 µM (inactive) | > 50 µM (inactive) | > 50 µM (inactive) | – | > 50 µM (inactive) | 26.1 µM (inactive)
11 | CC12CCC(=O)N1c1cncnc1N2 (centres undefined) | > 10 µM (inactive) | > 10 µM (inactive) | > 10 µM (inactive) | 0.0374 µM (active) | > 10 µM (inactive) | > 10 µM (inactive) | > 10 µM (inactive) | > 10 µM (inactive) | > 10 µM (inactive) | > 10 µM (inactive) | > 10 µM (inactive) | > 10 µM (inactive) | > 10 µM (inactive) | > 10 µM (inactive) | – | > 10 µM (inactive) | – | > 10 µM (inactive) | > 10 µM (inactive) | –
12 | CCCNC(=O)Cn1c2c(c3ccccc31)CCCC2 | 20 µM (inactive) | 87.7 µM (inactive) | 36.9 µM (inactive) | 29.6 µM (inactive) | – | 37.1 µM (inactive) | 43.6 µM (inactive) | > 100 µM (inactive) | > 100 µM (inactive) | 94.8 µM (inactive) | – | 53.8 µM (inactive) | 42.8 µM (inactive) | – | 77.1 µM (inactive) | > 100 µM (inactive) | 33.7 µM (inactive) | 73.1 µM (inactive) | > 100 µM (inactive) | 40.7 µM (inactive)
13 | COc1ccc(N2C(=O)c3cc([N+](=O)[O-])cnc3S2(=O)=O)cc1 | > 100 µM (inactive) | > 100 µM (inactive) | > 100 µM (inactive) | > 100 µM (inactive) | > 100 µM (inactive) | – | > 100 µM (inactive) | > 100 µM (inactive) | > 100 µM (inactive) | > 100 µM (inactive) | > 100 µM (inactive) | > 100 µM (inactive) | > 100 µM (inactive) | > 100 µM (inactive) | – | > 100 µM (inactive) | – | > 100 µM (inactive) | > 100 µM (inactive) | > 100 µM (inactive)
14 | C=C1C[C@@H]2O[C@H]3[C@H]4[C@@H](C[C@@H](C)[C@@H](OC(C)=O)[C@H]42)[C@@H](C)CO[C@@]3(C)[C@H](OC(=O)CCCCCCC)C[C@H]1O | 15.8 µM (inactive) | 17.2 µM (inactive) | 22.5 µM (inactive) | 12.4 µM (inactive) | 10.5 µM (inactive) | 23.4 µM (inactive) | 22.9 µM (inactive) | 13.2 µM (inactive) | 15.2 µM (inactive) | – | 16.7 µM (inactive) | 18.2 µM (inactive) | 15.8 µM (inactive) | 16.9 µM (inactive) | 14.8 µM (inactive) | 17.2 µM (inactive) | 15.5 µM (inactive) | 22.9 µM (inactive) | 18.7 µM (inactive) | 16.1 µM (inactive)
15 | Cc1cccc2oc3c(CC(=O)O)cccc3c(=O)c12 | > 100 µM (inactive) | > 100 µM (inactive) | > 100 µM (inactive) | > 100 µM (inactive) | > 100 µM (inactive) | > 100 µM (inactive) | > 100 µM (inactive) | > 100 µM (inactive) | > 100 µM (inactive) | – | > 100 µM (inactive) | > 100 µM (inactive) | > 100 µM (inactive) | > 100 µM (inactive) | > 100 µM (inactive) | > 100 µM (inactive) | > 100 µM (inactive) | > 100 µM (inactive) | > 100 µM (inactive) | > 100 µM (inactive)
